These results are taken from US20170334899A1, “AMINO-SUBSTITUTED ISOTHIAZOLES” (Bayer Pharma Aktiengesellschaft, priority 2014, published 2017).

In one assay the target is T1, CDK2/CycE (Homo sapiens, UniProt P24941).
T1 construct: GST; purchased ProQinase GmbH (Freiburg, Germany); host or cells: insect cells (Sf9)
In words: CDK2/CycE kinase assay (TR-FRET). Type of assay: biochemical. The note with it: avg, read-out: CDK2 avg (IC50 [mol/l]). An excerpt: CDK2/CycE -inhibitory activity of compounds of the present invention was quantified employing the CDK2/CycE TR-FRET assay as described in the following paragraphs.
Recombinant fusion proteins of GST and human CDK2 and of GST and human CycE, expressed in insect cells (Sf9) and purified by Glutathion-Sepharose affinity chromatography, were purchased from ProQinase GmbH (Freiburg, Germany). As substrate for the kinase reaction biotinylated peptide biotin-Ttds-YISPLKSPYKISEG (C-terminus in amid form) was used which can be purchased e.g. form the company JERINI peptide technologies (Berlin, Germany).
For the assay 50 nl of a 100fold concentrated solution of the test compound in DMSO was pipetted into a black low volume 384we11 microtiter plate (Greiner Bio-One, Frickenhausen, Germany), 2 μl of a solution of CDK2/CycE in aqueous assay buffer [50 mM Tris/HCl pH 8.0, 10 mM MgCl2, 1.0 mM dithiothreitol, 0.1 mM sodium ortho-vanadate, 0.01% (v/v) Nonidet-P40 (Sigma)] were added and the mixture was incubated for 15 min at 22° C. to allow pre-binding of the test compounds to the enzyme before the start of the kinase reaction. Then the kinase reaction was started by the addition of 3 μl of a solution of adenosine-tri-phosphate (ATP, 16.7 μM=>final conc. in the 5 μl assay volume is 10 μM) and substrate (1.25 μM=>final conc. in the 5 μl assay volume is 0.75 μM) in assay buffer and the resulting mixture was incubated for a reaction time of 25 min at 22° C. The concentration of CDK2/CycE was adjusted depending of the activity of the enzyme lot and was chosen appropriate to have the assay in the linear range, typical concentrations were in the range of 130 ng/ml. The reaction was stopped by the addition of 5 μl of a solution of TR-FRET detection reagents (0.2 μM streptavidine-XL665 [Cisbio Bioassays, Codolet, France] and 1 nM anti-RB(pSer807/pSer811)-antibody from BD Pharmingen [#558389] and 1.2 nM LANCE EU-W1024 labeled anti-mouse IgG antibody [Perkin-Elmer, product no. AD0077, as an alternative a Terbium-cryptate-labeled anti-mouse IgG antibody from Cisbio Bioassays can be used]) in an aqueous EDTA-solution (100 mM EDTA, 0.2% (w/v) bovine serum albumin in 100 mM HEPES/NaOH pH 7.0).
The resulting mixture was incubated 1 h at 22° C. to allow the formation of complex between the phosphorylated biotinylated peptide and the detection reagents. Subsequently the amount of phosphorylated substrate was evaluated by measurement of the resonance energy transfer from the Eu-chelate to the streptavidine-XL. Therefore, the fluorescence emissions at 620 nm and 665 nm after excitation at 350 nm was measured in a TR-FRET reader, e.g. a Rubystar (BMG Labtechnologies, Offenburg, Germany) or a Viewlux (Perkin-Elmer). The ratio of the emissions at 665 nm and at […] was taken as the measure for the amount of phosphorylated substrate. The data were normalised (enzyme reaction without inhibitor=0% inhibition, all other assay components but no enzyme=100% inhibition).
On the technique in general: In TR-FRET formats the signal depends on donor and acceptor labels being close together.

A further assay concerns HeLa. Nature of the assay: Proliferation assay (crystal violet), HeLa. Format: cell-based. The note with it: Homo sapiens, HeLa, 96 h, HeLa cells; 4 days incubation; crystal violet staining; read-out: IC50 inhibition of proliferation, HeLa. In short, it runs like this: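 Cells plated at 1000-5000/well with 10% FCS, treated after 24 h with compound at 0.001-10 μM (0.5% DMSO) for 4 days. Glutaraldehyde-fixed, crystal violet-stained, A595 normalised to zero-point plate (0%) and untreated cells (100%); IC50 by 4-parameter fit.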

On to `Cc1nsc(Nc2cnc3ccccc3n2)c1C(=O)Nc1cccc(-c2nnc(C(C)(C)C)o2)c1` [Example 107, N-[3-(5-tert-Butyl-1,3,4-oxadiazol-2-yl)phenyl]-3-methyl-5-(quinoxalin-2-ylamino)-1,2-thiazole-4-carboxamide], for which the IC50 at CDK2/CycE is not below 20 µM; in the assay on HeLa it was 3 µM.
For `Cc1nsc(Nc2cncc(C(F)(F)F)n2)c1C(=O)Nc1ccc(C(=O)NC2CCN(CC(F)(F)F)CC2)cc1` [Example 167, 3-methyl-N-(4-{[1-(2,2,2-trifluoroethyl)piperidin-4-yl]carbamoyl}phenyl)-5-{[6-(trifluoromethyl)pyrazin-2-yl]amino}-1,2-thiazole-4-carboxamide], the values for the IC50 on CDK2/CycE and in the assay on HeLa were more than 20 µM and 4.3 µM, respectively.
With `Cc1nsc(Nc2cnc(C(F)(F)F)cn2)c1C(=O)Nc1ccc(OCC2CCN(C(=O)OC(C)(C)C)C2)nc1` (stereo not shown) [Example 109, tert-Butyl 3-{[(5-{[(3-methyl-5-{[5-(trifluoromethyl)pyrazin-2-yl]amino}-1,2-thiazol-4-yl)carbonyl]amino}pyridin-2-yl)oxy]methyl}pyrrolidine-1-carboxylate], the IC50 is not below 20 µM at CDK2/CycE and 0.2 µM in the assay on HeLa.
As to `Cc1nsc(Nc2cnc3ccccc3n2)c1C(=O)Nc1cccc(C(=O)N2CCCC2)c1` [Example 113, 3-Methyl-N-[3-(pyrrolidin-1-ylcarbonyl)phenyl]-5-(quinoxalin-2-ylamino)-1,2-thiazole-4-carboxamide], the IC50 on CDK2/CycE is not below 20 µM; with HeLa, 10 µM.
Take `CC(=O)N1CCC(Oc2ccc(NC(=O)c3c(C)nsc3Nc3cnc(C(F)(F)F)cn3)cn2)CC1` [Example 11, N-{6-[(1-Acetylpiperidin-4-yl)oxy]pyridin-3-yl}-3-methyl-5-{[5-(trifluoromethyl)-pyrazin-2-yl]amino}-1,2-thiazole-4-carboxamide]: the IC50 was not below 20 µM on CDK2/CycE and 1.8 µM with HeLa.
As for `Cc1nsc(Nc2ccc(C#N)cn2)c1C(=O)Nc1ccc(NC2CCCN(C(=O)OC(C)(C)C)C2)nc1` (stereo not shown) [Example 171, tert-butyt 3-({5-[({5-[(5-cyanopyridin-2-yl)amino]-3-methyl-1,2-thiazol-4-yl}carbonyl)amino]pyridin-2-yl}amino)piperidine-1-carboxylate], the IC50 on CDK2/CycE was more than 20 µM; in the assay with HeLa, 6.2 µM.
Take `Cc1nsc(Nc2cncc(C(F)(F)F)n2)c1C(=O)Nc1ccc(OCC2CCCN(C(=O)OC(C)(C)C)C2)nc1` (stereo not shown) [Example 166, tert-butyl 3-{[(5-{[(3-methyl-5-{[6-(trifluoromethyl)pyrazin-2-yl]amino}-1,2-thiazol-4-yl)carbonyl]amino}pyridin-2-yl)oxy]methyl}piperidine-1-carboxylate]: the IC50 was more than 20 µM on CDK2/CycE and 0.83 µM in the assay with HeLa.
In the case of `Cc1nsc(Nc2cnc3ccccc3n2)c1C(=O)Nc1ccc(C(=O)NC2CN(C(=O)OC(C)(C)C)CC(F)(F)C2)cc1` (stereo not shown) [Example 158, tert-butyl 3,3-difluoro-5-{[4-({[3-methyl-5-(quinoxalin-2-ylamino)-1,2-thiazol-4-yl]carbonyl}amino)benzoyl]amino} piperidine-1-carboxylate], the results for the IC50 on CDK2/CycE and with HeLa were more than 20 µM and 3.2 µM, respectively.
The matching figures for `CC(=O)Nc1cc(NC(=O)c2c(C)nsc2Nc2ccc(C#N)cn2)ccc1F` [Example 152, N-(3-acetamido-4-fluorophenyl)-5-[(5-cyanopyridin-2-yl)amino]-3-methyl-1,2-thiazole-4-carboxamide]: more than 20 µM and more than 10 µM.
The matching figures for `Cc1nsc(Nc2cnc(C(F)(F)F)cn2)c1C(=O)Nc1ccc(OC2CCNCC2)nc1` [Example 6, 3-Methyl-N-[6-(piperidin-4-yloxy)pyridin-3-yl]-5-{[5-(trifluoromethyl)pyrazin-2-yl]amino}-1,2-thiazole-4-carboxamide]: not below 20 µM and 10 µM.
`Cc1nsc(Nc2cnc(C(F)(F)F)cn2)c1C(=O)Nc1ccc(OC2CCN(CCF)CC2)nc1` [Example 7, N-(6-{[1-(2-Fluoroethyl)piperidin-4-yl]oxy}pyridin-3-yl)-3-methyl-5-{[5-(trifluoromethyl)pyrazin-2-yl]amino}-1,2-thiazole-4-carboxamide]: the values for the IC50 at CDK2/CycE and in the assay with HeLa were not below 20 µM and 0.58 µM, respectively.
`Cc1nsc(Nc2cnc(C(F)(F)F)cn2)c1C(=O)Nc1ccc(OC[C@@H]2CCN(CCC(F)(F)F)C2)nc1` [Example 129, 3-Methyl-5-{[5-(trifluoromethyl)pyrazin-2-yl]amino}-N-(6-{[(3R)-1-(3,3,3-trifluoropropyl)pyrrolidin-3-yl]methoxy}pyridin-3-yl)-1,2-thiazole-4-carboxamide]: the IC50 at CDK2/CycE is more than 20 µM; in the assay on HeLa it was 0.25 µM.
As to `Cc1nsc(Nc2cncc(C(F)(F)F)n2)c1C(=O)Nc1ccc(F)c(OC2CCN(C(=O)OC(C)(C)C)CC2)c1` [Example 168, tert-butyl 4-(2-fluoro-5-{[(3-methyl-5-{[6-(trifluoromethyl)pyrazin-2-yl]amino}-1,2-thiazol-4-yl)carbonyl]amino}phenoxy)piperidine-1-carboxylate], the IC50 on CDK2/CycE was more than 20 µM; with HeLa, 0.91 µM.
With `Cc1nsc(Nc2cncc(C(F)(F)F)n2)c1C(=O)Nc1ccc(OCC2CCN(C(=O)OC(C)(C)C)C2)nc1` (stereo not shown) [Example 110, tert-Butyl 3-{[(5-{[(3-methyl-5-{[6-(trifluoromethyl)pyrazin-2-yl]amino}-1,2-thiazol-4-yl)carbonyl]amino}pyridin-2-yl)oxy]methyl}pyrrolidine-1-carboxylate], the IC50 at CDK2/CycE is not below 20 µM; in the assay with HeLa, 0.85 µM.
As for `Cc1nsc(Nc2cnc(C(F)(F)F)cn2)c1C(=O)Nc1ccc(O[C@H]2CCN(CC(F)(F)F)C[C@H]2F)nc1` [Example 145, N-(6-{[(3R,4S)-3-fluoro-1-(2,2,2-trifluoroethyl)piperidin-4-yl]oxy}pyridin-3-yl)-3-methyl-5-{[5-(trifluoromethyl)pyrazin-2-yl]amino}-1,2-thiazole-4-carboxamide], the values for the IC50 on CDK2/CycE and in the assay on HeLa were more than 20 µM and 0.16 µM, respectively.
In the case of `Cc1noc(-c2cccc(NC(=O)c3c(C)nsc3Nc3cnc4ccccc4n3)c2)n1` [Example 106, 3-Methyl-N-[3-(3-methyl-1,2,4-oxadiazol-5-yl)phenyl]-5-(quinoxalin-2-ylamino)-1,2-thiazole-4-carboxamide], the IC50 was not below 20 µM on CDK2/CycE and 1.7 µM with HeLa.
`Cc1nsc(Nc2cnc3ccccc3n2)c1C(=O)Nc1ccc(Oc2cccc(C(F)(F)F)c2)nc1` [Example 117, 3-Methyl-5-(quinoxalin-2-ylamino)-N-{6-[3-(trifluoromethyl)phenoxy]pyridin-3-yl}-1,2-thiazole-4-carboxamide]: the figures for the IC50 on CDK2/CycE and with HeLa were not below 20 µM and 0.88 µM, respectively.
In the case of `Cc1nsc(Nc2cnc3ccccc3n2)c1C(=O)Nc1ccc(C(=O)N2CCCN(CC(F)(F)F)CC2)cc1` [Example 159], the IC50 is more than 20 µM at CDK2/CycE and 2.3 µM with HeLa.
Consider `Cc1nsc(Nc2cnc(C(F)(F)F)cn2)c1C(=O)Nc1ccc(C(=O)O)cc1` [Example 97, 4-{[(3-Methyl-5-{[5-(trifluoromethyl)pyrazin-2-yl]amino}-1,2-thiazol-4-yl)carbony]-amino}benzoic acid], for which the IC50 at CDK2/CycE was not below 20 µM; in the assay on HeLa, 10 µM.
In the case of `CNS(=O)(=O)c1ccc(NC(=O)c2c(C)nsc2Nc2cnc3ccccc3n2)cc1` [Example 111, 3-Methyl-N-[4-(methylsulfannoyl)phenyl]-5-(quinoxalin-2-ylamino)-1,2-thiazole-4-carboxamide], the IC50 at CDK2/CycE was not below 20 µM; with HeLa, 4.4 µM.
